System: 616215-338-R-J1-PDC complex spheroid viability
Assay: Anticancer human tumor 616215-338-R-J1-PDC patient-derived colon adenocarcinoma cell line growth inhibition [POLQ]
Conditions: for IC50: curve of first compound; for viability, T/C: stronger effect = lower value
Procedure, shortened: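 Complex spheroid viability model combining PDC tumour cells with endothelial (HUVEC) and MSC stromal cells. Novobiocin, ART-558 or RP6685 were tested singly and in combination with standard and investigational anticancer drugs. Each was titrated in half-log steps from near clinical Cmax, or from 10 microM where Cmax was unknown.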

[1] = second compound 0.0316 µM, first compound 0.0316 µM
[2] = second compound 0.0316 µM, first compound 0.1 µM
[3] = second compound 0.1 µM, first compound 0.0316 µM
[4] = second compound 0.1 µM, first compound 0.1 µM
[5] = second compound 0.316 µM, first compound 0.0316 µM
[6] = second compound 0.316 µM, first compound 0.1 µM
[7] = second compound 1 µM, first compound 0.0316 µM
[8] = second compound 1 µM, first compound 0.1 µM
[9] = second compound 3.16 µM, first compound 0.0316 µM
[10] = second compound 3.16 µM, first compound 0.1 µM
[11] = second compound 10 µM, first compound 0.0316 µM
[12] = second compound 10 µM, first compound 0.1 µM
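Note: spheroids exposed to compounds for one week before readout.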
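Throughout, for viability, T/C: percent viability relative to DMSO vehicle wells taken as 100%.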

In the case of `O=c1[nH]cc(F)c(=O)[nH]1` + Nc1ccc(C#CCN(C(=O)Cc2ncc(C(F)(F)F)cc2C(F)(F)F)c2ccc(F)cc2)nn1, the IC50 (second compound 0.0316 µM) is reported as 479 nM, the IC50 (second compound 0.1 µM) is reported as 509 nM and the IC50 (second compound 0.316 µM) is reported as 529 nM. The IC50 (second compound 1 µM) was 529 nM, the IC50 (second compound 3.16 µM) was 278 nM and the IC50 (second compound 10 µM) was 437 nM. It also gave a viability, T/C [1] of 101%, a viability, T/C [2] of 82.2% and a viability, T/C (second compound 0.0316 µM, first compound 0.316 µM) of 56.6%. The viability, T/C (second compound 0.0316 µM, first compound 1 µM) was 38.9%, the viability, T/C (second compound 0.0316 µM, first compound 3.16 µM) was 35.9% and the viability, T/C (second compound 0.0316 µM, first compound 10 µM) was 37.5%. For the same molecule, the viability, T/C [3] was 93.3%, the viability, T/C [4] was 92.2% and the viability, T/C (second compound 0.1 µM, first compound 0.316 µM) was 53.7%. The viability, T/C (second compound 0.1 µM, first compound 1 µM) was 43.5%, the viability, T/C (second compound 0.1 µM, first compound 3.16 µM) was 44.9% and the viability, T/C (second compound 0.1 µM, first compound 10 µM) was 45.6%. It also gave a viability, T/C [5] of 103%, a viability, T/C [6] of 77.6% and a viability, T/C (second compound 0.316 µM, first compound 0.316 µM) of 60.6%. For the same molecule, the viability, T/C (second compound 0.316 µM, first compound 1 µM) was 35.6%, the viability, T/C (second compound 0.316 µM, first compound 3.16 µM) was 42% and the viability, T/C (second compound 0.316 µM, first compound 10 µM) was 39.7%. For the same molecule, the viability, T/C [7] was 97.5%, the viability, T/C [8] was 89.7% and the viability, T/C (second compound 1 µM, first compound 0.316 µM) was 57.5%. For the same molecule, the viability, T/C (second compound 1 µM, first compound 1 µM) was 40.7%, the viability, T/C (second compound 1 µM, first compound 3.16 µM) was 38.4% and the viability, T/C (second compound 1 µM, first compound 10 µM) was 39.7%. The viability, T/C [9] was 95.1%, the viability, T/C [10] was 90.5% and the viability, T/C (second compound 3.16 µM, first compound 0.316 µM) was 44.8%. For the same molecule, the viability, T/C (second compound 3.16 µM, first compound 1 µM) was 41.6%, the viability, T/C (second compound 3.16 µM, first compound 3.16 µM) was 36.4% and the viability, T/C (second compound 3.16 µM, first compound 10 µM) was 37.5%. For the same molecule, the viability, T/C [11] was 91.1%, the viability, T/C [12] was 75.7% and the viability, T/C (second compound 10 µM, first compound 0.316 µM) was 55.5%. For the same molecule, the viability, T/C (second compound 10 µM, first compound 1 µM) was 38.2%, the viability, T/C (second compound 10 µM, first compound 3.16 µM) was 35.7% and the viability, T/C (second compound 10 µM, first compound 10 µM) was 37.6%.

In the case of `CC[C@@]1(O)C(=O)OCc2c1cc1n(c2=O)Cc2cc3c(CN(C)C)c(O)ccc3nc2-1` + Cc1cccc(N(C)C(=O)C2C(O)CCN2c2nc(C)cc(C(F)(F)F)c2C#N)c1, the IC50 (second compound 0.0316 µM) is reported as greater than 100 nM, the IC50 (second compound 0.1 µM) is reported as greater than 100 nM and the IC50 (second compound 0.316 µM) is reported as greater than 100 nM. The IC50 (second compound 1 µM) was greater than 100 nM, the IC50 (second compound 3.16 µM) was greater than 100 nM and the IC50 (second compound 10 µM) was greater than 100 nM. For the same molecule, the viability, T/C (second compound 0.0316 µM, first compound 0.000316 µM) was 96.5%, the viability, T/C (second compound 0.0316 µM, first compound 0.001 µM) was 100% and the viability, T/C (second compound 0.0316 µM, first compound 0.00316 µM) was 97.7%. The viability, T/C (second compound 0.0316 µM, first compound 0.01 µM) was 101%, the viability, T/C [1] was 105% and the viability, T/C [2] was 82.5%. For the same molecule, the viability, T/C (second compound 0.1 µM, first compound 0.000316 µM) was 99.2%, the viability, T/C (second compound 0.1 µM, first compound 0.001 µM) was 101% and the viability, T/C (second compound 0.1 µM, first compound 0.00316 µM) was 101%. The viability, T/C (second compound 0.1 µM, first compound 0.01 µM) was 116%, the viability, T/C [3] was 107% and the viability, T/C [4] was 79.6%. It also gave a viability, T/C (second compound 0.316 µM, first compound 0.000316 µM) of 114%, a viability, T/C (second compound 0.316 µM, first compound 0.001 µM) of 104% and a viability, T/C (second compound 0.316 µM, first compound 0.00316 µM) of 92.3%. It also gave a viability, T/C (second compound 0.316 µM, first compound 0.01 µM) of 114%, a viability, T/C [5] of 96.7% and a viability, T/C [6] of 84.3%. For the same molecule, the viability, T/C (second compound 1 µM, first compound 0.000316 µM) was 101%, the viability, T/C (second compound 1 µM, first compound 0.001 µM) was 93.5% and the viability, T/C (second compound 1 µM, first compound 0.00316 µM) was 112%. The viability, T/C (second compound 1 µM, first compound 0.01 µM) was 112%, the viability, T/C [7] was 103% and the viability, T/C [8] was 77.2%. It also gave a viability, T/C (second compound 3.16 µM, first compound 0.000316 µM) of 101%, a viability, T/C (second compound 3.16 µM, first compound 0.001 µM) of 94.2% and a viability, T/C (second compound 3.16 µM, first compound 0.00316 µM) of 93.2%. For the same molecule, the viability, T/C (second compound 3.16 µM, first compound 0.01 µM) was 101%, the viability, T/C [9] was 103% and the viability, T/C [10] was 78.8%. The viability, T/C (second compound 10 µM, first compound 0.000316 µM) was 100%, the viability, T/C (second compound 10 µM, first compound 0.001 µM) was 98.9% and the viability, T/C (second compound 10 µM, first compound 0.00316 µM) was 95.3%. It also gave a viability, T/C (second compound 10 µM, first compound 0.01 µM) of 103%, a viability, T/C [11] of 97.8% and a viability, T/C [12] of 64.4%.
